The assay addresses T1, CB2 receptor (Homo sapiens, UniProt P34972).
T1 construct: expressed in transfected cells; host or cells: SK-N-MC cells, stably transfected with pcDNA3 CB-2 (human)
Briefly: Binding assay for CB2 ([3H]-CP-55,940 displacement, SK-N-MC membranes). How it is done:
The human CB1 and CB2 receptors were stably expressed in SK-N-MC cells transfected with pcDNA3 CB-1 (human) or pcDNA3 CB-2 (human). The cells were grown in T-180 cell culture flasks under standard cell culture conditions at 37° C. in a 5% CO2 atmosphere. The cells were harvested by trysinization and homogenized in a homogenization buffer (10 mM Tris, 0.2 mM MgCl2, 5 mM KCl, with protease inhibitors aprotinin, leupeptin, pepstatin A and bacitracin) and centrifuged (2000 g). The supernatant was then centrifuged in 2M sucrose (31,300 g) to produce a semi-purified membrane pellet. The pellet was resuspended in homogenization and stored at −80° C.
On the day of the assay, the pellet was thawed on ice and diluted in assay buffer (50 mM Tris-HCl, 5 mM MgCl2, 2.5 mM EDTA, 0.5 mg/mL fatty acid free bovine serum albumin, pH 7.5). The diluted membrane pellet was added with buffer, either a test compound or vehicle standard and the radioligand [H]^3+-CP-55,940 (0.2 nM) to the wells of a 96-well polypropylene plate. Non-specific binding was measured in wells containing WIN 55,212 (10 uM). The plate was covered and incubated for 90 minutes at 30° C. The contents were then aspirated onto a Packard Unifilter GF/C filter bottom plate prewet with 0.5% polyethyleneimine. The wells of the polypropylene plate were rinsed and aspirated seven times with a 0.9% saline-0.5% Tween 20 solution. The Unifilter plate was dried, scintillation cocktail was added to each well and the counts representing binding were quantitated in a TopCount scintillation counter.
For compounds tested, an IC50 binding value was obtained from percent inhibition studies in which various test concentrations were used. The binding value was calculated by linear regression.
For compounds without an IC50 binding value, the percent inhibition (%) was obtained at a test concentration of ^(1)10 μM, ^(2)1 μM, ^(3)0.2 μM, ^(4)0.003 μM, ^(5) represents an average value.

Molecules are shown by their SMILES. Where “and” joins values, the source holds several entries; their conditions need not be identical. Equal values may be shown once.

The record followed here is US7825151B2, “Hexahydro-cyclooctyl pyrazole cannabinoid modulators” (priority 2005, dated 2010).

T1 sequence (P34972 whole entry): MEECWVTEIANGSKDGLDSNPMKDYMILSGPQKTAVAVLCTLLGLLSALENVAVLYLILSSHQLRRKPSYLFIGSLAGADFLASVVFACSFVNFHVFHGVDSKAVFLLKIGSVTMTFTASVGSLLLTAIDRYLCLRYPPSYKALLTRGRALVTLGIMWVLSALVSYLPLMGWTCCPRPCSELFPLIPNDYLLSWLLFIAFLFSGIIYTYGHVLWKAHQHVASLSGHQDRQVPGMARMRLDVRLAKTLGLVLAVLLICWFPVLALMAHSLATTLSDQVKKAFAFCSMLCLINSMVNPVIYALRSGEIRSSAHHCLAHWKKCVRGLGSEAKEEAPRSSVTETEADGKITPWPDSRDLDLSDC

Consider `O=C(NCC12CC3CC(CC(C3)C1)C2)c1nn(C2CCCCC2)c2c1CCCCCC2` [Cpd 2, 1-cyclohexyl-4,5,6,7,8,9-hexahydro-1H-cyclooctapyrazole-3-carboxylic acid (adamantan-1-ylmethyl)-amide], for which the IC50 (Cannabinoid CB2 Receptor Binding IC50, radioligand CP-55,940 0.2 nM, SK-N-MC membranes) was 1 nM and 6 nM and 10 nM. For the same compound, the inhibition at 0.003 µM (read-out: CB2 receptor binding percent inhibition) amounted to 86%.

As usually defined, the IC50 is the point on the concentration scale where inhibition reaches its midpoint. A low value points to higher potency. The inhibition is the drop in the measured response relative to a control, in per cent.
